Holding throughout (assay type): cell-based
The target in one assay is T1, HiBiT-tagged BCL-xL (Homo sapiens, UniProt Q07817).
T1 construct: expressed in transfected cells; host or cells: NCI-H1650 (ATCC No. CRL-5883), engineered HiBiT cell line
Put plainly: NCI-H1650 BCL-xL protein levels, Nano-Glo HiBiT Lytic Detection. Particulars: NCI-H1650 expressing HiBiT-tagged BCL-xL, overnight incubation, read-out: Bcl-xl HIBIT NCIH1650 DC50. A digest of the protocol:
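HiBiT luminescence after cell lysis with LgBiT/furimazine reagent reported BCL-xL levels, expressed relative to untreated wells and fitted with a four-parameter logistic equation. Engineered NCI-H1650 cells were exposed overnight at 37° C to compound at final 0.508 nM-10 μM (10 points, triplicate plates).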
(In general: The HiBiT peptide binds its large partner to form an active luciferase.)

Another assay has as its system COR-L105. The experiment in a line: CellTiter-Glo proliferation assay, COR-L105. To be noted: Homo sapiens, COR-L105, 120 h, COR-L105, 5 days; for Emax: read-out: COR-L105 Span (max). On the procedure: (§1) The BCL-xL degrader compounds were tested against two endogenous cancer cell lines: • COR-L105: ECACC No. 92031918 cultured in RPMI-1640+10% FBS • NCI-H1650: (ATCC No. CRL-5883 cultured in RPMI-1640+10% FBS
(§2) The ability of the BCL-xL degrader low molecular weight compounds to inhibit cell proliferation and survival was assessed using the Promega CellTiter-Glo® proliferation assay.
(§3) Cell lines were cultured in media that is optimal for their growth at 5% CO2, 37° C. in a tissue culture incubator. Prior to seeding for the proliferation assay, the cells were split at least 2 days before the assay to ensure optimal growth density. On the day of seeding, adherent cells were lifted off tissue culture flasks using 0.25% trypsin. Cell viability and cell density were determined using a cell counter (Vi-Cell XR Cell Viability Analyzer, Beckman Coulter). Cells with higher than 85% viability were seeded for the assay.
(§4) The COR-105 cell line was seeded in white, clear bottom 384-well TC treated plates (Corning cat. #3765). Cells were seeded at a density of 1,000 cells per well in 45 μL of standard growth media. Plates were incubated at 5% CO2, 37° C. overnight in a tissue culture incubator. The NCI-H1650 cell line was seeded in black, clear round bottom 384-well ultra-low attachment spheroid microplates (Corning cat. #3830). Cells were seeded at a density of 3,000 cells per well in 45 uL of standard growth media. Plates were spun in a centrifuge for 5 minutes and 1,000 RPM. Plates were incubated at 5% CO2, 37° C. for 72 hours in a tissue culture incubator.
(§5) On the day of dosing, BCL-xL degrader low molecular weight compounds were prepared at 1 OX in standard growth media. The prepared drug treatments were then added to the cells resulting in final concentrations of 0.508 nM-10 μM and a final volume of 50 μL per well. Each drug concentration was tested in quadruplets. Plates were incubated at 5% CO2, 37° C. for 5 days in a tissue culture incubator.
(§6) For COR-L105 plates, cell viability was assessed through the addition of 25 μL of CellTiter Glo® (Promega, cat #G7573), a reagent which lyses cells and measures total adenosine triphosphate (ATP) content. Plates were incubated at room temperature for 10 minutes to stabilize luminescent signals prior to reading with a luminescence reader (EnVision Multilabel Plate Reader, PerkinElmer). For NCI-H1650 plates, cell viability was assessed through the addition of 40 μL of CellTiter Glo® 3D Cell Viability Assay substrate (Promega, cat #G9681), a reagent which lyses cells and measures total adenosine triphosphate (ATP) content. Wells were mixed thoroughly and plates were incubated at room temperature for 30 minutes to stabilize luminescent signals prior to reading using a luminescence reader (EnVision Multilabel Plate Reader, PerkinElmer).
(§7) To evaluate the effect of the drug treatments, luminescent counts from wells containing untreated cells (100% viability) were used to normalize treated samples. A variable slope model was applied to fit a nonlinear regression curve to the data in GraphPad PRISM version 7.02 software. IC50 and Amax values were extrapolated from the resultant curves. The concentrations of treatment required to inhibit 50% of cell growth or survival (IC50) were calculated with representative IC50 values of the cell lines tested summarized in Table 11.
A general note: ATP-based viability assays read luminescence as a measure of living cells.

Assay [1] has as its system EBC-1 lung cancer cell line. The experiment in a line: EBC-1 cell proliferation, CellTiter-Glo assay. To be noted: Homo sapiens, 120 h; Ebc-1 cell viability, CTG assay, 5 days of treatment; read-out: CTG 5 day Ebc1 GI50. A digest of the protocol: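 CellTiter-Glo read-out after 5-day compound treatment, normalised to untreated cells, with GI50 derived by four-parameter logistic regression. Ten concentrations spanning 0.508 nM–10 μM were added to 1000 EBC-1 cells per well the day after seeding. Assays required at least one cell doubling versus Day 0.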

A further assay relates to NCI-H1650. The experiment in a line: CellTiter-Glo 3D proliferation assay, NCI-H1650 spheroids. To be noted: Homo sapiens, NCI-H1650, 120 h, 5 days; for Emax: read-out: NCI-H1650 Span (Amax). As for the experimental part:
as §1, §2, §3, §4, §5, §6, §7

The next assay relates to MOLT-4 cells. Put plainly: MOLT-4 cell viability, MTT assay. Particulars: Homo sapiens, MOLT-4, 48 h. An excerpt: The MTT colorimetric assay is based on the mitochondrial reduction of tetrazolium salt by living cells. The viable cell number is proportional to the production of formazan salts, which can be read spectrophotometrically at 540 nm. The CTG luminescent assay (CellTiter GLO, Promega) is based on a reagent which lyses cells and measures total adenosine triphosphate (ATP) content. The viable cell number is proportional to the production of ATP.
MOLT-4 cells were purchased from ATCC and cultivated in RPMI 1640 supplemented with 10% heat inactivated fetal bovine serum, penicillin (100 IU/mi), streptomycin (100 μg/ml) and L-glutamine (2 mM). Cells were cultured at 37° C. in a humidified atmosphere containing 5% […].
For MTT assay, cells were seeded in 96 microwell plates (150 μL per well) and exposed to the compounds for 48 h (3.16 fold serially diluted; 9 concentrations each, triplicates). At the end of incubation time, 15 μL of MTT solution (5 mg/ml) were added per well and the cells were incubated for another 4 h. Then, 100 μL of 10% Sodium Dodecyl Sulfate (SDS)/HCl 10 mM were added per well and the plate was incubated overnight, before measurement of optical density at 540 nm.
IC50, were calculated using standard four-parametric curve fitting. IC50 is defined as the compound concentration at which the MTT or CTG signal is reduced to 50% of that measured for the control. Results shown in Table 14 represent the mean of at least 2 independent experiments.
(In general: Formazan colour is commonly taken as a measure of viable cells.)

The term IC50 denotes the concentration that inhibits the measured activity by half. Usually GI50 stands for the concentration at which growth is held to half of that of the control.

T1 sequence (Q07817 whole entry): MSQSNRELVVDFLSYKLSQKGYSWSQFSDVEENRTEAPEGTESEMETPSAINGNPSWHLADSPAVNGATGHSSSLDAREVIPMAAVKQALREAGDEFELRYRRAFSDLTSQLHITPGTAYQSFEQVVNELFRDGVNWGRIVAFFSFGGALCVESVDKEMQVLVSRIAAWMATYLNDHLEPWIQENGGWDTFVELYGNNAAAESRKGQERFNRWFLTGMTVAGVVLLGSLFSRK

For the compound `Cc1ncsc1-c1ccc(CNC(=O)[C@@H]2C[C@@H](O)CN2C(=O)[C@@H](NC(=O)C2(F)CC2)C(C)(C)C)c(OCCCCCCCCCN2CCN(CC#Cc3ccc(OCCCc4sc(N5CCCc6c5nnc(Nc5nc7ccccc7s5)c6C)nc4C(=O)O)c(F)c3)CC2)c1` [Example 57, 2-(3-(benzo[d]thiazol-2-ylamino)-4-methyl-6,7-dihydropyrido [2,3-c]pyridazin-8(5H)-yl)-5-(3-(2-fluoro-4-(3-(4-(9-(2-(((2S,4R)-1-((S)-2-(1-fluorocyclopropane-1-carboxamido)-3,3-dimethylbutanoyl)-4-hydroxypyrrolidine-2-carboxamido)methyl)-5-(4-methylthiazol-5-yl)phenoxy)nonyl)piperazin-1-yl)prop-1-yn-1-yl)phenoxy)propyl)thiazole-4-carboxylic acid], at HiBiT-tagged BCL-xL, the DC50 is 18 nM. Besides, the IC50 with COR-L105 is 3630 nM; in the assay on NCI-H1650, 258 nM. Moreover, the Emax in the assay on COR-L105 amounted to 72.5%; in the assay with NCI-H1650 it was 126%. In addition, the GI50 in assay [1] worked out at 5 nM.
Regarding `Cc1ncsc1-c1ccc(CNC(=O)[C@@H]2C[C@@H](O)CN2C(=O)[C@@H](NC(=O)C2(F)CC2)C(C)(C)C)c(OCCCCCCCCN2CCN(CC#Cc3ccc(OCCCc4sc(N5CCCc6c5nnc(Nc5nc7ccccc7s5)c6C)nc4C(=O)O)c(F)c3)CC2)c1` [Example 56, 2-(3-(benzo[d]thiazol-2-ylamino)-4-methyl-6,7-dihydropyrido [2,3-c]pyridazin-8(5H)-yl)-5-(3-(2-fluoro-4-(3-(4-(8-(2-(((2S,4R)-1-((S)-2-(1-fluorocyclopropane-1-carboxamido)-3,3-dimethylbutanoyl)-4-hydroxypyrrolidine-2-carboxamido)methyl)-5-(4-methylthiazol-5-yl)phenoxy)octyl)piperazin-1-yl)prop-1-yn-1-yl)phenoxy)propyl)thiazole-4-carboxylic acid], the IC50 in the assay on COR-L105 worked out at 473 nM; in the assay with NCI-H1650 it was 110 nM. Moreover, the figures for the Emax with COR-L105 and with NCI-H1650 were 82% and 84.2%, respectively.
Consider `Cc1ncsc1-c1ccc(CNC(=O)[C@@H]2C[C@@H](O)CN2C(=O)[C@@H](NC(=O)C2(F)CC2)C(C)(C)C)c(OCCCCCCCCCCCCN2CCN(CC#Cc3ccc(OCCCc4sc(N5CCCc6c5nnc(Nc5nc7ccccc7s5)c6C)nc4C(=O)O)c(F)c3)CC2)c1` [Example 55, 2-(3-(benzo[d]thiazol-2-ylamino)-4-methyl-6,7-dihydropyrido [2,3-c]pyridazin-8(5H)-yl)-5-(3-(2-fluoro-4-(3-(4-(12-(2-(((2S,4R)-1-((S)-2-(1-fluorocyclopropane-1-carboxamido)-3,3-dimethylbutanoyl)-4-hydroxypyrrolidine-2-carboxamido)methyl)-5-(4-methylthiazol-5-yl)phenoxy)dodecyl)piperazin-1-yl)prop-1-yn-1-yl)phenoxy)propyl)thiazole-4-carboxylic acid], for which the values for the IC50 in the assay on COR-L105 and in the assay with NCI-H1650 were 1160 nM and 302 nM, respectively. In addition, the Emax with COR-L105 came out at 81%; with NCI-H1650 it was 78.8%.
On to `Cc1ncsc1-c1ccc(CNC(=O)[C@@H]2C[C@@H](O)CN2C(=O)[C@@H](NC(=O)C2(F)CC2)C(C)(C)C)c(OCc2ccc(CN3CCN(CC#Cc4ccc(OCCCc5sc(N6CCCc7c6nnc(Nc6nc8ccccc8s6)c7C)nc5C(=O)O)c(F)c4)CC3)cc2)c1` [Example 58, 2-(3-(benzo[d]thiazol-2-ylamino)-4-methyl-6,7-dihydropyrido [2,3-c]pyridazin-8(5H)-yl)-5-(3-(2-fluoro-4-(3-(4-(4-((2-(((2S,4R)-1-((S)-2-(1-fluorocyclopropane-1-carboxamido)-3,3-dimethylbutanoyl)-4-hydroxypyrrolidine-2-carboxamido)methyl)-5-(4-methylthiazol-5-yl)phenoxy)methyl)benzyl)piperazin-1-yl)prop-1-yn-1-yl)phenoxy)propyl)thiazole-4-carboxylic acid], for which, in the assay on COR-L105, the IC50 was determined as 481 nM and the Emax turned out to be 85.5%. In addition, in the assay on NCI-H1650, 188 nM corresponded to half-maximal inhibition (IC50) and the Emax was 98.2%.
`Cc1ncsc1-c1ccc(CNC(=O)[C@@H]2C[C@@H](O)CN2C(=O)[C@@H](NC(=O)C2(F)CC2)C(C)(C)C)c(OCCN(C)CC(=O)N2CCN(CC#Cc3ccc(OCCCc4sc(N5CCCc6c5nnc(Nc5nc7ccccc7s5)c6C)nc4C(=O)O)c(F)c3)CC2)c1` [Example 59, 2-(3-(benzo[d]thiazol-2-ylamino)-4-methyl-6,7-dihydropyrido [2,3-c]pyridazin-8(5H)-yl)-5-(3-(2-fluoro-4-(3-(4-(N-(2-(2-(((2S,4R)-1-((S)-2-(1-fluorocyclopropane-1-carboxamido)-3,3-dimethylbutanoyl)-4-hydroxypyrrolidine-2-carboxamido)methyl)-5-(4-methylthiazol-5-yl)phenoxy)ethyl)-N-methylglycyl)piperazin-1-yl)prop-1-yn-1-yl)phenoxy)propyl)thiazole-4-carboxylic acid]: the IC50 in the assay on COR-L105 worked out at 2430 nM; in the assay on NCI-H1650, 119 nM. The Emax was determined as 105% with COR-L105 and 77.9% in the assay on NCI-H1650.
In the case of `Cc1cc(N(CCCCNC(=O)CCOCCOCCOCCOCCNc2cccc3c2C(=O)N(C2CCC(=O)NC2=O)C3=O)c2nc(C(=O)O)c(CCCOc3ccc(C#CCN(C)C)cc3F)s2)nnc1Nc1nc2ccccc2s1` (centres unmarked) [Example 149, 2-[[6-(1,3-benzothiazol-2-ylamino)-5-methyl-pyridazin-3-yl]-[4-[3-[2-[2-[2-[2-[[2-(2,6-dioxo-3-piperidyl)-1,3-dioxo-isoindolin-4-yl]amino]ethoxy]ethoxy]ethoxy]ethoxy]propanoylamino]butyl]amino]-5-[3-[4-[3-(dimethylamino)prop-1-ynyl]-2-fluoro-phenoxy]propyl]thiazole-4-carboxylic acid], 358 nM corresponded to half-maximal inhibition in the assay with MOLT-4 cells (IC50).
